Drawing on BindingDB's records for doi:10.1016/j.ejmech.2012.11.020 (North Maharashtra University, 2013), this text covers IC50 for two molecules.

Structures are written as SMILES.

For this test, the target named is T1, Pancreatic alpha-amylase (Sus scrofa, UniProt P00690).
T1 sequence (P00690 whole entry): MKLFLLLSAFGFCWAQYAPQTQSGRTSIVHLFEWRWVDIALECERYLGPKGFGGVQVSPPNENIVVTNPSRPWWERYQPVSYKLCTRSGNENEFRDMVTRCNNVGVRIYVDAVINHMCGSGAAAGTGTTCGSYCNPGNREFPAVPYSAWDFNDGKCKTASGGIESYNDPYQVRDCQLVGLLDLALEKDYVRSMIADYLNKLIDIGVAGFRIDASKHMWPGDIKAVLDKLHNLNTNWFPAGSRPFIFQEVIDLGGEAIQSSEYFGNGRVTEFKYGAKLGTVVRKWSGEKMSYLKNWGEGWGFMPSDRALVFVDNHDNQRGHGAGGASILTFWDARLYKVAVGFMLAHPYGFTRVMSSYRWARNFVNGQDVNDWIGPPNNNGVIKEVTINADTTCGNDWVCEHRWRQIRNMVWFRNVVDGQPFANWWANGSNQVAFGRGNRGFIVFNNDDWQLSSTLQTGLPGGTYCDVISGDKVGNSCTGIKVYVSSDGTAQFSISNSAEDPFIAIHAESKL
Briefly: Inhibition of pig pancreatic alpha-amylase by Bernfeld method.

In turn, `CCOc1ccc2nc(N=C(CC(=O)c3ccc(Cl)cc3)SC)sc2c1` gave an IC50 of 17.9 µM.

`CSC(CC(=O)c1ccc(Br)cc1)=Nc1nc2ccccc2s1` yielded an IC50 of 17.8 µM.

For orientation: IC50 means the concentration needed to halve the response being measured.
